Experimental findings from ChEMBL document CHEMBL5136990, “Histone deacetylase 6 inhibitors with blood-brain barrier penetration as a potential strategy for CNS-Disorders therapy” (Eur J Med Chem, 2022) are described below.

The target of one test is Histone deacetylase 3 (Homo sapiens, UniProt O15379). Briefly: Inhibition of recombinant human HDAC3 using fluorogenic substrate.
The target in test [1] is T1, Histone deacetylase 2 (Homo sapiens, UniProt Q92769). Briefly: Inhibition of recombinant human HDAC2 using fluorogenic substrate.
Test [2] addresses T2, Polyamine deacetylase HDAC10 (Homo sapiens, UniProt Q969S8).
T2 sequence (Q969S8 whole entry): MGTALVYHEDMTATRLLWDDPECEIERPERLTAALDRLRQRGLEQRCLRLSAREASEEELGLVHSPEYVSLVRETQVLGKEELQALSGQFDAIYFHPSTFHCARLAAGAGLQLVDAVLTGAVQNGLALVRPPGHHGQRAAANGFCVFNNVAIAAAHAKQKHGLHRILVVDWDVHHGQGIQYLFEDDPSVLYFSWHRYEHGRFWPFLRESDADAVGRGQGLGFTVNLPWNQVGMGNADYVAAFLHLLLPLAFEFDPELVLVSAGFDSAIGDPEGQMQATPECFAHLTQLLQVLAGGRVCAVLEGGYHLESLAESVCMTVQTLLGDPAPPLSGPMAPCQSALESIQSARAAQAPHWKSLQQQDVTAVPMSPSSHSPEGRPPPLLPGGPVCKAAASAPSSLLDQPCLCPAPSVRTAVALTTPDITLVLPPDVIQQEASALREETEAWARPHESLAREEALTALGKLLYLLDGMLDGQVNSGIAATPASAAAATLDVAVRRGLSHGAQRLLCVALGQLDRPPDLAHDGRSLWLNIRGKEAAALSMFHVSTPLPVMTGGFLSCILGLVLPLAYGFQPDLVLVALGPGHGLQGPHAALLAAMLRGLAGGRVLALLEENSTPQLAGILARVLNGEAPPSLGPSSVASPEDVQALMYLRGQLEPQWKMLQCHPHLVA
Briefly: Inhibition of recombinant human HDAC10 using fluorogenic substrate.

In test [3] the target is T3, Histone deacetylase 1 (Homo sapiens, UniProt Q13547). Briefly: Inhibition of recombinant human HDAC1 using fluorogenic substrate.
For test [4], the target named is cGMP-specific 3',5'-cyclic phosphodiesterase (Homo sapiens, UniProt O76074). Briefly: Inhibition of PDE5 (unknown origin).
The target in test [5] is T1, Histone deacetylase 2. Put plainly: Inhibition of HDAC2 (unknown origin).
In test [6] the target is High affinity cGMP-specific 3',5'-cyclic phosphodiesterase 9A (Homo sapiens, UniProt O76083). Briefly: Inhibition of PDE9 (unknown origin).
Test [7] addresses T4, Protein deacetylase HDAC6 (Homo sapiens, UniProt Q9UBN7).
T4 sequence (Q9UBN7 whole entry): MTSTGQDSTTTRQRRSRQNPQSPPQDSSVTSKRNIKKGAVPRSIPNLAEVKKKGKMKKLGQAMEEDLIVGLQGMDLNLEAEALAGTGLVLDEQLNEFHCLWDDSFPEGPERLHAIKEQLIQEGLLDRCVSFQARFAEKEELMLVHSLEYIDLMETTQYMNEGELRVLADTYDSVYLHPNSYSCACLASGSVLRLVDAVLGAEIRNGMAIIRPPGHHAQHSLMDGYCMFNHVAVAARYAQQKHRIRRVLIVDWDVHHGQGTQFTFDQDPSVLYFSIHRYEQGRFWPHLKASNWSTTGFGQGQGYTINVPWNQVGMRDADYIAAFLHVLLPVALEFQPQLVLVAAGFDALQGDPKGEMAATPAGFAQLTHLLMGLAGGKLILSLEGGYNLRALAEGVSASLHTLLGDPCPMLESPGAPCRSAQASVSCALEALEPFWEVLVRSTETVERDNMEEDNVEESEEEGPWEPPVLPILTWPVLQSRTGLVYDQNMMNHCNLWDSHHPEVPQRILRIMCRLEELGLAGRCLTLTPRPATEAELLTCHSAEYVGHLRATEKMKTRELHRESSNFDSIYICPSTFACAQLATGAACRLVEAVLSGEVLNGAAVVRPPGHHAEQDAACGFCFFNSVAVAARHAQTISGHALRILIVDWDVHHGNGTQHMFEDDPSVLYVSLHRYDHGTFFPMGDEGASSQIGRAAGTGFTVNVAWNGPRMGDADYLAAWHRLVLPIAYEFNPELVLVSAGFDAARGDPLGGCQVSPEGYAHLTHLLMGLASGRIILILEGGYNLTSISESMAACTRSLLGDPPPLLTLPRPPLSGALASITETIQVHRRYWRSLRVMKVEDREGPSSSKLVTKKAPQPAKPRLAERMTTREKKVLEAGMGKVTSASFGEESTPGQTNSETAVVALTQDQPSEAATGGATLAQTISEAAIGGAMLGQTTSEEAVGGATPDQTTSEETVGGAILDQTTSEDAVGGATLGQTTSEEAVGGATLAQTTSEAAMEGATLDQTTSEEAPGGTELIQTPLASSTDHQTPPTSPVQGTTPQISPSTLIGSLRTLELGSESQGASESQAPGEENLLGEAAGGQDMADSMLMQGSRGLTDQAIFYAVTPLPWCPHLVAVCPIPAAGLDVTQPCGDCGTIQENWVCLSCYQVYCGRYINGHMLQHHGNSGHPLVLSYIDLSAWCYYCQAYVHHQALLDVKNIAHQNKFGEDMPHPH
Briefly: Inhibition of HDAC6 (unknown origin).

Test [8] deals with T3, Histone deacetylase 1. Put plainly: Inhibition of HDAC1 (unknown origin).
Test [9] is described as follows: Inhibition of full-length recombinant human HDAC3/NcoR2 using RHKKAc peptide as substrate by fluorescence based assay.

T1 sequence (Q92769 whole entry): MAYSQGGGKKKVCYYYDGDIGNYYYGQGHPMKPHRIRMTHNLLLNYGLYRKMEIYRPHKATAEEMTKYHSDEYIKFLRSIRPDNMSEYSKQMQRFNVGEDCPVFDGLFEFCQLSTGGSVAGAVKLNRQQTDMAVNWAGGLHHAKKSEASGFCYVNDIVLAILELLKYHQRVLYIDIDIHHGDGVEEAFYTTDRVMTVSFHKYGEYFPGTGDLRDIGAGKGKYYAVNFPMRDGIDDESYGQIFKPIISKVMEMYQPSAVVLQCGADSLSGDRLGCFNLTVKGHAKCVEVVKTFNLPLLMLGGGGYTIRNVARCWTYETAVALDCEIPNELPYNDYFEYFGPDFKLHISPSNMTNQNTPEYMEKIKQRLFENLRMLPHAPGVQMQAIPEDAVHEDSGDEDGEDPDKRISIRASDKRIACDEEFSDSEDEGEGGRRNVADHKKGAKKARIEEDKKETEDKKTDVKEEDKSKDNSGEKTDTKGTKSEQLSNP
T3 sequence (Q13547 whole entry): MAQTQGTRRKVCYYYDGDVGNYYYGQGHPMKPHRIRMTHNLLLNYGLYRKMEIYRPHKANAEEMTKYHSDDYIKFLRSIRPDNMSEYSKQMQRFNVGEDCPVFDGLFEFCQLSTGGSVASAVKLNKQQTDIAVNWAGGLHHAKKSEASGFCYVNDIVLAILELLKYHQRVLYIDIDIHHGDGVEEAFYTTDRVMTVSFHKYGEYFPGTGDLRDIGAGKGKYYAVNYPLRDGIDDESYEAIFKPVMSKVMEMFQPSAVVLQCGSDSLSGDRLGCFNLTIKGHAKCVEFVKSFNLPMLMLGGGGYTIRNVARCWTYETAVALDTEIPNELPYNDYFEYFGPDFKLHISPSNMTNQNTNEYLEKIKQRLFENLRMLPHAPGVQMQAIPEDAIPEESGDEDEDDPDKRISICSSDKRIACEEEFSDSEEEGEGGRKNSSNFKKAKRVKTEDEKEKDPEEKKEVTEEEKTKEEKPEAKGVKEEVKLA
Chain of High affinity cGMP-specific 3',5'-cyclic phosphodiesterase 9A (O76083 whole entry): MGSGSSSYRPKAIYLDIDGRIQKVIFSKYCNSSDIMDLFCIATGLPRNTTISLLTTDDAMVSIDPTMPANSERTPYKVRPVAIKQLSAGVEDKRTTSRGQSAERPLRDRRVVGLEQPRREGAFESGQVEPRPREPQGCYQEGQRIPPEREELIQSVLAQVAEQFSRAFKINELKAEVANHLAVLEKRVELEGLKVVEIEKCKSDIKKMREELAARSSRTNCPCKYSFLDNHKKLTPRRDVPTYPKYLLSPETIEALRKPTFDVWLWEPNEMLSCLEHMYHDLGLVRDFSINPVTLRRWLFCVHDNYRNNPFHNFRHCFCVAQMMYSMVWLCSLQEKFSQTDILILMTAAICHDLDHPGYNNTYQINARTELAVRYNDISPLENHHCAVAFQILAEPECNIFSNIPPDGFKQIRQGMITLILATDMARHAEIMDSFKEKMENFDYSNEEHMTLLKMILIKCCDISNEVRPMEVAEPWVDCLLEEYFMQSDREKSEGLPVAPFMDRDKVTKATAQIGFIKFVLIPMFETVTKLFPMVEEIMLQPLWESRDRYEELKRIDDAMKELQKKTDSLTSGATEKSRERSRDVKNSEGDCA
Chain of Histone deacetylase 3 (O15379 whole entry): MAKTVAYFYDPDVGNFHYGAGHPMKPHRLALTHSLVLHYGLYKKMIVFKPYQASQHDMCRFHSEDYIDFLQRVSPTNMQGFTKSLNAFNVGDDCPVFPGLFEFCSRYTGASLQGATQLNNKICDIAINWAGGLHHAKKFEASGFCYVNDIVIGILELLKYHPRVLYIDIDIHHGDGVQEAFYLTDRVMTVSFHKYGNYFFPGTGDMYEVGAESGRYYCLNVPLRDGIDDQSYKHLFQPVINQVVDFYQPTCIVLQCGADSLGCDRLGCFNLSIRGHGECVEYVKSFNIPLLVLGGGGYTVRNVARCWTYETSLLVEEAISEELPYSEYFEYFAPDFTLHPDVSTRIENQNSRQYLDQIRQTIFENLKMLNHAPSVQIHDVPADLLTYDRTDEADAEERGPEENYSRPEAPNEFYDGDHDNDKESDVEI

Regarding `CN(Cc1ccc(C(=O)NO)cc1[18F])CC12CC3CC(CC(C3)C1)C2`, the half-inhibitory concentration (IC50) (on Histone deacetylase 3; on Histone deacetylase 2 [1]; in test [2]; at Histone deacetylase 1 [3]) was above 10 µM throughout.

Turning to `C[C@@H]1CN(Cc2ccc(C(=O)NO)cc2)C[C@H]1c1nc2c(cnn2C2CCCC2)c(=O)[nH]1`, the IC50 (commonly the concentration needed to halve the response being measured) in test [4] is above 10 µM; on Histone deacetylase 2 [5], 3.53 µM; in [6], 0.107 µM; in test [7], 0.04 µM; at Histone deacetylase 1 [8], 0.593 µM.

Consider `O=C(NO)c1ccc(CN2CCCc3cc(Cl)ccc32)cc1`, for which the IC50 in test [9] was 29.5 µM.
